Test results reported in ChEMBL document CHEMBL3046635, “Synthesis and Herbicidal Activity of New Pyrazole-4-carboxamide Derivatives” (J Pestic Sci, 2004).
Active and inactive are the calls of the source.

Experiments:
Pontederia vaginalis [1] = test: Post-emergence herbicidal activity against Monochoria vaginalis assessed as bleaching of stem/leaf parts; format: functional, organism-based; note: test concentration or dose not given here
Cyperus difformis [2] = test: Pre-emergence herbicidal activity against Cyperus difformis at 100 g a.i/ha measured after 14 days; format: functional, organism-based
[3] = system: Schoenoplectiella juncoides; test: Pre-emergence herbicidal activity against Schoenoplectiella juncoides assessed as bleaching of stem/leaf parts; format: functional, organism-based
Cyperus difformis [4] = test: Pre-emergence herbicidal activity against Cyperus difformis assessed as bleaching of stem/leaf parts; format: functional, organism-based
Lindernia procumbens [5] = test: Pre-emergence herbicidal activity against Lindernia procumbens at 500 g a.i/ha measured after 14 days; format: functional, organism-based
Pontederia vaginalis [6] = test: Pre-emergence herbicidal activity against Monochoria vaginalis assessed as bleaching of stem/leaf parts; format: functional, organism-based
Lindernia procumbens [7] = test: Pre-emergence herbicidal activity against Lindernia procumbens assessed as bleaching of stem/leaf parts; format: functional, organism-based
[8] = system: Schoenoplectiella juncoides; test: Pre-emergence herbicidal activity against Schoenoplectiella juncoides at 500 g a.i/ha measured after 14 days; format: functional, organism-based
Eleocharis acicularis [9] = test: Post-emergence herbicidal activity against Eleocharis acicularis assessed as bleaching of stem/leaf parts; format: functional, organism-based; note: test concentration or dose not given here
Elatine triandra [10] = test: Pre-emergence herbicidal activity against Elatine triandra at 500 g a.i/ha measured after 14 days; format: functional, organism-based
Eleocharis acicularis [11] = test: Pre-emergence herbicidal activity against Eleocharis acicularis assessed as bleaching of stem/leaf parts; format: functional, organism-based
Rotala indica [12] = test: Pre-emergence herbicidal activity against Rotala indica assessed as bleaching of stem/leaf parts; format: functional, organism-based
Oryza sativa [13] = test: Phytotoxicity against Oryza sativa cv. Koshihikari (rice) at 500 g a.i/ha measured after 14 days; format: organism-based; settings: in vivo, 336 h
Echinochloa oryzicola [14] = test: Post-emergence herbicidal activity against Echinochloa oryzicola assessed as bleaching of stem/leaf parts; format: functional, organism-based; note: test concentration or dose not given here
Ammannia multiflora [15] = test: Post-emergence herbicidal activity against Ammannia multiflora assessed as bleaching of stem/leaf parts; format: functional, organism-based; note: test concentration or dose not given here
Pontederia vaginalis [16] = test: Pre-emergence herbicidal activity against Monochoria vaginalis at 100 g a.i/ha measured after 14 days; format: functional, organism-based
Elatine triandra [17] = test: Pre-emergence herbicidal activity against Elatine triandra at 100 g a.i/ha measured after 14 days; format: functional, organism-based
Ammannia multiflora [18] = test: Pre-emergence herbicidal activity against Ammannia multiflora at 500 g a.i/ha measured after 14 days; format: functional, organism-based
Cyperus difformis [19] = test: Post-emergence herbicidal activity against Cyperus difformis assessed as bleaching of stem/leaf parts; format: functional, organism-based; note: test concentration or dose not given here
Rotala indica [20] = test: Pre-emergence herbicidal activity against Rotala indica at 500 g a.i/ha measured after 14 days; format: functional, organism-based
Ammannia multiflora [21] = test: Pre-emergence herbicidal activity against Ammannia multiflora assessed as bleaching of stem/leaf parts; format: functional, organism-based
Eleocharis acicularis [22] = test: Pre-emergence herbicidal activity against Eleocharis acicularis at 100 g a.i/ha measured after 14 days; format: functional, organism-based
Elatine triandra [23] = test: Pre-emergence herbicidal activity against Elatine triandra assessed as bleaching of stem/leaf parts; format: functional, organism-based
Cyperus difformis [24] = test: Pre-emergence herbicidal activity against Cyperus difformis at 500 g a.i/ha measured after 14 days; format: functional, organism-based
Oryza sativa [25] = test: Phytotoxicity against Oryza sativa cv. Koshihikari (rice) at 100 g a.i/ha measured after 14 days; format: organism-based; settings: in vivo, 336 h
Elatine triandra [26] = test: Post-emergence herbicidal activity against Elatine triandra assessed as bleaching of stem/leaf parts; format: functional, organism-based; note: test concentration or dose not given here
Ammannia multiflora [27] = test: Pre-emergence herbicidal activity against Ammannia multiflora at 100 g a.i/ha measured after 14 days; format: functional, organism-based
Lindernia procumbens [28] = test: Post-emergence herbicidal activity against Lindernia procumbens assessed as bleaching of stem/leaf parts; format: functional, organism-based; note: test concentration or dose not given here
[29] = system: Schoenoplectiella juncoides; test: Pre-emergence herbicidal activity against Schoenoplectiella juncoides at 100 g a.i/ha measured after 14 days; format: functional, organism-based
Rotala indica [30] = test: Pre-emergence herbicidal activity against Rotala indica at 100 g a.i/ha measured after 14 days; format: functional, organism-based
[31] = system: Schoenoplectiella juncoides; test: Post-emergence herbicidal activity against Schoenoplectiella juncoides assessed as bleaching of stem/leaf parts; format: functional, organism-based; note: test concentration or dose not given here
Lindernia procumbens [32] = test: Pre-emergence herbicidal activity against Lindernia procumbens at 100 g a.i/ha measured after 14 days; format: functional, organism-based
Echinochloa oryzicola [33] = test: Pre-emergence herbicidal activity against Echinochloa oryzicola at 500 g a.i/ha measured after 14 days; format: functional, organism-based
Echinochloa oryzicola [34] = test: Pre-emergence herbicidal activity against Echinochloa oryzicola at 100 g a.i/ha measured after 14 days; format: functional, organism-based
Echinochloa oryzicola [35] = test: Pre-emergence herbicidal activity against Echinochloa oryzicola assessed as bleaching of stem/leaf parts; format: functional, organism-based
Rotala indica [36] = test: Post-emergence herbicidal activity against Rotala indica assessed as bleaching of stem/leaf parts; format: functional, organism-based; note: test concentration or dose not given here
Pontederia vaginalis [37] = test: Pre-emergence herbicidal activity against Monochoria vaginalis at 500 g a.i/ha measured after 14 days; format: functional, organism-based
Eleocharis acicularis [38] = test: Pre-emergence herbicidal activity against Eleocharis acicularis at 500 g a.i/ha measured after 14 days; format: functional, organism-based

Compound	Activity (Pontederia vaginalis [1])	Activity (Cyperus difformis [2])	Activity [3]	Activity (Cyperus difformis [4])	Activity (Lindernia procumbens [5])	Activity (Pontederia vaginalis [6])	Activity (Lindernia procumbens [7])	Activity [8]	Activity (Eleocharis acicularis [9])	Activity (Elatine triandra [10])	Activity (Eleocharis acicularis [11])	Activity (Rotala indica [12])	Activity (Oryza sativa [13])	Activity (Echinochloa oryzicola [14])	Activity (Ammannia multiflora [15])	Activity (Pontederia vaginalis [16])	Activity (Elatine triandra [17])	Activity (Ammannia multiflora [18])	Activity (Cyperus difformis [19])	Activity (Rotala indica [20])	other results
CCCCONC(=O)c1cn(C)nc1OCc1cccc(C(F)(F)F)c1	Active	Active	Active	Active	Active	Active	Active	Active	Active	Active	Active	Active	Toxic	Active	Active	Active	Active	Active	Active	Active	Activity (Ammannia multiflora [21]): Active; Activity (Eleocharis acicularis [22]): Active; Activity (Elatine triandra [23]): Active; Activity (Cyperus difformis [24]): Active; Activity (Oryza sativa [25]): Non-toxic; Activity (Elatine triandra [26]): Active; Activity (Ammannia multiflora [27]): Active; Activity (Lindernia procumbens [28]): Active; Activity [29]: Active; Activity (Rotala indica [30]): Active; Activity [31]: Active; Activity (Lindernia procumbens [32]): Active; Activity (Echinochloa oryzicola [33]): Active; Activity (Echinochloa oryzicola [34]): Active; Activity (Echinochloa oryzicola [35]): Active; Activity (Rotala indica [36]): Active; Activity (Pontederia vaginalis [37]): Active; Activity (Eleocharis acicularis [38]): Active
Cn1cc(C(=O)NOc2ccc(F)cc2)c(OCc2cccc(C(F)(F)F)c2)n1	Active	inactive	Active	Active	Active	Active	Active	Active	Active	Active	Active	Active	Non-toxic	Active	Active	Active	Active	Active	Active	Active	Activity (Ammannia multiflora [21]): Active; Activity (Eleocharis acicularis [22]): Active; Activity (Elatine triandra [23]): Active; Activity (Cyperus difformis [24]): Active; Activity (Oryza sativa [25]): Non-toxic; Activity (Elatine triandra [26]): Active; Activity (Ammannia multiflora [27]): Active; Activity (Lindernia procumbens [28]): Active; Activity [29]: inactive; Activity (Rotala indica [30]): Active; Activity [31]: Active; Activity (Lindernia procumbens [32]): Active; Activity (Echinochloa oryzicola [33]): Active; Activity (Echinochloa oryzicola [34]): inactive; Activity (Echinochloa oryzicola [35]): Active; Activity (Rotala indica [36]): Active; Activity (Pontederia vaginalis [37]): Active; Activity (Eleocharis acicularis [38]): Active
Cn1cc(C(=O)NOc2ccccc2)c(OCc2cccc(C(F)(F)F)c2)n1	Active	Active	Active	Active	Active	Active	Active	Active	Active	Active	Active	Active	Non-toxic	Active	Active	Active	Active	Active	Active	Active	Activity (Ammannia multiflora [21]): Active; Activity (Eleocharis acicularis [22]): Active; Activity (Elatine triandra [23]): Active; Activity (Cyperus difformis [24]): Active; Activity (Oryza sativa [25]): Non-toxic; Activity (Elatine triandra [26]): Active; Activity (Ammannia multiflora [27]): Active; Activity (Lindernia procumbens [28]): Active; Activity [29]: inactive; Activity (Rotala indica [30]): Active; Activity [31]: Active; Activity (Lindernia procumbens [32]): Active; Activity (Echinochloa oryzicola [33]): Active; Activity (Echinochloa oryzicola [34]): Active; Activity (Echinochloa oryzicola [35]): Active; Activity (Rotala indica [36]): Active; Activity (Pontederia vaginalis [37]): Active; Activity (Eleocharis acicularis [38]): Active
Cn1cc(C(=O)NOc2ccc(Cl)cc2)c(OCc2cccc(C(F)(F)F)c2)n1	Active	Active	Active	Active	Active	Active	Active	Active	Active	Active	Active	Active	Non-toxic	Active	Active	Active	Active	Active	Active	Active	Activity (Ammannia multiflora [21]): Active; Activity (Eleocharis acicularis [22]): Active; Activity (Elatine triandra [23]): Active; Activity (Cyperus difformis [24]): Active; Activity (Oryza sativa [25]): Non-toxic; Activity (Elatine triandra [26]): Active; Activity (Ammannia multiflora [27]): Active; Activity (Lindernia procumbens [28]): Active; Activity [29]: Active; Activity (Rotala indica [30]): Active; Activity [31]: Active; Activity (Lindernia procumbens [32]): Active; Activity (Echinochloa oryzicola [33]): Active; Activity (Echinochloa oryzicola [34]): inactive; Activity (Echinochloa oryzicola [35]): Active; Activity (Rotala indica [36]): Active; Activity (Pontederia vaginalis [37]): Active; Activity (Eleocharis acicularis [38]): Active
